Laboratory results taken from US10351522B2, “Sulfonamide derivative and pharmaceutically acceptable acid addition salt thereof” (UNIVERSITY OF TSUKUBA, priority 2015, dated 2019).

These compounds were tested against T1, human OX2R (Homo sapiens, UniProt O43614) (assay: Agonist activity against OX2R: intracellular calcium (Fura-2AM, FDSS7000) in CHOOX2R cells). Conditions: 0.1 μM test compound; relative to orexin-A as full agonist (100%).
T1 construct: expressed in transfected cells; host or cells: CHO (Chinese hamster ovary) cells, line CHOOX2R, co-expressing NFAT-luciferase
T1 sequence (O43614 1-444): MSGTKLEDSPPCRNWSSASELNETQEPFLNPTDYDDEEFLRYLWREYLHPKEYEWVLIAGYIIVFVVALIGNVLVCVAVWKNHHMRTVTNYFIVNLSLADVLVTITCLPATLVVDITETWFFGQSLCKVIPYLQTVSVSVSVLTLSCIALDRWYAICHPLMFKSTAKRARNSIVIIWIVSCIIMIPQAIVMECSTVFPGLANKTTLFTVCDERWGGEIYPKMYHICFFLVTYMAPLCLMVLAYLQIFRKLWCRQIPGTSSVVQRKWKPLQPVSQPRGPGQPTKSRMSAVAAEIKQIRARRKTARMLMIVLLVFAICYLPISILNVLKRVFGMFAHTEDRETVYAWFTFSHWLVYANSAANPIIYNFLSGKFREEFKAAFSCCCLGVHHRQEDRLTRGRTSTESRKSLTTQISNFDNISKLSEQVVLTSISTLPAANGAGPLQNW
Type: cell-based
How it was run: (§1)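 CHO cells stably expressing human OX1R or OX2R (plus NFAT-luciferase) were loaded with 5 μM Fura-2AM for 60 min, then given compound at 10^−7 to 10^−5 M final (1% DMSO). Calcium change read as 340/380 nm excitation fluorescence ratio; response expressed as % of orexin-A maximal activity at 10, 1.0 and 0.1 μM.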

Compound | Response (%) OX2R [%]
COc1ccc(-c2cccc(C(=O)N(C)C)c2)cc1S(=O)(=O)Nc1cccc(NC(=O)Nc2ccc(N)cc2)c1 [Example 55] | <5
COc1ccc(-c2cccc(C(=O)N(C)C)c2)cc1S(=O)(=O)Nc1cccc(NC(=O)Nc2ccc(C)cc2)c1 [Example 56] | 95
COc1ccc(-c2cccc(C(=O)N(C)C)c2)cc1S(=O)(=O)Nc1cccc(NC(=O)Nc2cccc([N+](=O)[O-])c2)c1 [Example 57] | 91
COc1ccc(-c2cccc(C(=O)N(C)C)c2)cc1S(=O)(=O)Nc1cccc(NC(=O)Nc2ccc(NC(=NC(=O)OC(C)(C)C)NC(=O)OC(C)(C)C)cc2)c1 [Example 58] | <5
COc1ccc(-c2cccc(C(=O)N(C)C)c2)cc1S(=O)(=O)Nc1cccc(NC(=O)Nc2ccc(NC(=N)NC(=O)OC(C)(C)C)cc2)c1 [Example 59] | <5
COc1ccc(-c2cccc(C(=O)N(C)C)c2)cc1S(=O)(=O)Nc1cccc(NC(=O)Nc2ccc(NC(=N)N)cc2)c1 [Example 60] | <5
COc1ccc(-c2cccc(C(=O)N(C)C)c2)cc1S(=O)(=O)Nc1cccc(NC(=O)Nc2ccc([N+](=O)[O-])cc2)c1 [Example 61] | 24
COc1ccc(-c2cccc(C(=O)N(C)C)c2)cc1S(=O)(=O)Nc1cccc(NC(=O)Nc2cccc(NC(=O)OC(C)(C)C)c2)c1 [Example 62] | 6
COc1ccc(-c2cccc(C(=O)N(C)C)c2)cc1S(=O)(=O)Nc1cccc(NC(=O)Nc2cccc(N)c2)c1 [Example 63] | 8
COc1ccc(-c2cccc(C(=O)N(C)C)c2)cc1S(=O)(=O)Nc1cccc(NC(=O)Nc2cccc(NC(=NC(=O)OC(C)(C)C)NC(=O)OC(C)(C)C)c2)c1 [Example 64] | <5

Same assay, conditions: 1.0 μM test compound; relative to orexin-A as full agonist (100%)

Compound | Response (%) OX2R [%]
COc1ccc(-c2cccc(C(=O)N(C)C)c2)cc1S(=O)(=O)Nc1cccc(NC(=O)Nc2ccc(N)cc2)c1 [Example 55] | 54
COc1ccc(-c2cccc(C(=O)N(C)C)c2)cc1S(=O)(=O)Nc1cccc(NC(=O)Nc2ccc(C)cc2)c1 [Example 56] | 96
COc1ccc(-c2cccc(C(=O)N(C)C)c2)cc1S(=O)(=O)Nc1cccc(NC(=O)Nc2cccc([N+](=O)[O-])c2)c1 [Example 57] | 92
COc1ccc(-c2cccc(C(=O)N(C)C)c2)cc1S(=O)(=O)Nc1cccc(NC(=O)Nc2ccc(NC(=NC(=O)OC(C)(C)C)NC(=O)OC(C)(C)C)cc2)c1 [Example 58] | <5
COc1ccc(-c2cccc(C(=O)N(C)C)c2)cc1S(=O)(=O)Nc1cccc(NC(=O)Nc2ccc(NC(=N)NC(=O)OC(C)(C)C)cc2)c1 [Example 59] | 18
COc1ccc(-c2cccc(C(=O)N(C)C)c2)cc1S(=O)(=O)Nc1cccc(NC(=O)Nc2ccc(NC(=N)N)cc2)c1 [Example 60] | <5
COc1ccc(-c2cccc(C(=O)N(C)C)c2)cc1S(=O)(=O)Nc1cccc(NC(=O)Nc2ccc([N+](=O)[O-])cc2)c1 [Example 61] | 105
COc1ccc(-c2cccc(C(=O)N(C)C)c2)cc1S(=O)(=O)Nc1cccc(NC(=O)Nc2cccc(NC(=O)OC(C)(C)C)c2)c1 [Example 62] | 7
COc1ccc(-c2cccc(C(=O)N(C)C)c2)cc1S(=O)(=O)Nc1cccc(NC(=O)Nc2cccc(N)c2)c1 [Example 63] | 55
COc1ccc(-c2cccc(C(=O)N(C)C)c2)cc1S(=O)(=O)Nc1cccc(NC(=O)Nc2cccc(NC(=NC(=O)OC(C)(C)C)NC(=O)OC(C)(C)C)c2)c1 [Example 64] | <5

Same assay, conditions: 10 μM test compound; relative to orexin-A as full agonist (100%)

Compound | Response (%) OX2R [%]
COc1ccc(-c2cccc(C(=O)N(C)C)c2)cc1S(=O)(=O)Nc1cccc(NC(=O)Nc2ccc(N)cc2)c1 [Example 55] | 105
COc1ccc(-c2cccc(C(=O)N(C)C)c2)cc1S(=O)(=O)Nc1cccc(NC(=O)Nc2ccc(C)cc2)c1 [Example 56] | 82
COc1ccc(-c2cccc(C(=O)N(C)C)c2)cc1S(=O)(=O)Nc1cccc(NC(=O)Nc2cccc([N+](=O)[O-])c2)c1 [Example 57] | 60
COc1ccc(-c2cccc(C(=O)N(C)C)c2)cc1S(=O)(=O)Nc1cccc(NC(=O)Nc2ccc(NC(=NC(=O)OC(C)(C)C)NC(=O)OC(C)(C)C)cc2)c1 [Example 58] | 63
COc1ccc(-c2cccc(C(=O)N(C)C)c2)cc1S(=O)(=O)Nc1cccc(NC(=O)Nc2ccc(NC(=N)NC(=O)OC(C)(C)C)cc2)c1 [Example 59] | 52
COc1ccc(-c2cccc(C(=O)N(C)C)c2)cc1S(=O)(=O)Nc1cccc(NC(=O)Nc2ccc(NC(=N)N)cc2)c1 [Example 60] | 31
COc1ccc(-c2cccc(C(=O)N(C)C)c2)cc1S(=O)(=O)Nc1cccc(NC(=O)Nc2ccc([N+](=O)[O-])cc2)c1 [Example 61] | 99
COc1ccc(-c2cccc(C(=O)N(C)C)c2)cc1S(=O)(=O)Nc1cccc(NC(=O)Nc2cccc(NC(=O)OC(C)(C)C)c2)c1 [Example 62] | 9
COc1ccc(-c2cccc(C(=O)N(C)C)c2)cc1S(=O)(=O)Nc1cccc(NC(=O)Nc2cccc(N)c2)c1 [Example 63] | 66
COc1ccc(-c2cccc(C(=O)N(C)C)c2)cc1S(=O)(=O)Nc1cccc(NC(=O)Nc2cccc(NC(=NC(=O)OC(C)(C)C)NC(=O)OC(C)(C)C)c2)c1 [Example 64] | <5

The compounds below were run against T2, human OX1R (Homo sapiens, UniProt O43613) (assay: Agonist activity against OX1R: intracellular calcium (Fura-2AM, FDSS7000) in CHOOX1R cells). Conditions: 0.1 μM test compound; relative to orexin-A as full agonist (100%).
T2 construct: expressed in transfected cells; host or cells: CHO (Chinese hamster ovary) cells, line CHOOX1R, co-expressing NFAT-luciferase
T2 sequence (O43613 1-425): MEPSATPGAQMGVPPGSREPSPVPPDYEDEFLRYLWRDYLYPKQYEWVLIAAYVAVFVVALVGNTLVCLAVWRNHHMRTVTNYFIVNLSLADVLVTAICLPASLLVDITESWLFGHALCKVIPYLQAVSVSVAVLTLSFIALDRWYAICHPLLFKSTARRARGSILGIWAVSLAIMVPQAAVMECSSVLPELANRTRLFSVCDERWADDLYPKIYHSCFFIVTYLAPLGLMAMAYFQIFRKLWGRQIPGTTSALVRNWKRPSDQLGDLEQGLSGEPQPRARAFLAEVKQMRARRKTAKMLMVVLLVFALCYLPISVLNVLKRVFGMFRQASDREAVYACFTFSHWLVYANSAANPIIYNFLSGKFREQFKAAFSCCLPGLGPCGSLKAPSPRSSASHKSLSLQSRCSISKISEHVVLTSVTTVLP
Type: cell-based
How it was run: as §1

Compound | Response (%) OX1R [%]
COc1ccc(-c2cccc(C(=O)N(C)C)c2)cc1S(=O)(=O)Nc1cccc(NC(=O)Nc2ccc(N)cc2)c1 [Example 55] | <5
COc1ccc(-c2cccc(C(=O)N(C)C)c2)cc1S(=O)(=O)Nc1cccc(NC(=O)Nc2ccc(C)cc2)c1 [Example 56] | <5
COc1ccc(-c2cccc(C(=O)N(C)C)c2)cc1S(=O)(=O)Nc1cccc(NC(=O)Nc2cccc([N+](=O)[O-])c2)c1 [Example 57] | <5
COc1ccc(-c2cccc(C(=O)N(C)C)c2)cc1S(=O)(=O)Nc1cccc(NC(=O)Nc2ccc(NC(=NC(=O)OC(C)(C)C)NC(=O)OC(C)(C)C)cc2)c1 [Example 58] | <5
COc1ccc(-c2cccc(C(=O)N(C)C)c2)cc1S(=O)(=O)Nc1cccc(NC(=O)Nc2ccc(NC(=N)NC(=O)OC(C)(C)C)cc2)c1 [Example 59] | <5
COc1ccc(-c2cccc(C(=O)N(C)C)c2)cc1S(=O)(=O)Nc1cccc(NC(=O)Nc2ccc(NC(=N)N)cc2)c1 [Example 60] | <5
COc1ccc(-c2cccc(C(=O)N(C)C)c2)cc1S(=O)(=O)Nc1cccc(NC(=O)Nc2ccc([N+](=O)[O-])cc2)c1 [Example 61] | <5
COc1ccc(-c2cccc(C(=O)N(C)C)c2)cc1S(=O)(=O)Nc1cccc(NC(=O)Nc2cccc(NC(=O)OC(C)(C)C)c2)c1 [Example 62] | 9
COc1ccc(-c2cccc(C(=O)N(C)C)c2)cc1S(=O)(=O)Nc1cccc(NC(=O)Nc2cccc(N)c2)c1 [Example 63] | 9
COc1ccc(-c2cccc(C(=O)N(C)C)c2)cc1S(=O)(=O)Nc1cccc(NC(=O)Nc2cccc(NC(=NC(=O)OC(C)(C)C)NC(=O)OC(C)(C)C)c2)c1 [Example 64] | <5

Same assay, conditions: 1.0 μM test compound; relative to orexin-A as full agonist (100%)

Compound | Response (%) OX1R [%]
COc1ccc(-c2cccc(C(=O)N(C)C)c2)cc1S(=O)(=O)Nc1cccc(NC(=O)Nc2ccc(N)cc2)c1 [Example 55] | <5
COc1ccc(-c2cccc(C(=O)N(C)C)c2)cc1S(=O)(=O)Nc1cccc(NC(=O)Nc2ccc(C)cc2)c1 [Example 56] | <5
COc1ccc(-c2cccc(C(=O)N(C)C)c2)cc1S(=O)(=O)Nc1cccc(NC(=O)Nc2cccc([N+](=O)[O-])c2)c1 [Example 57] | <5
COc1ccc(-c2cccc(C(=O)N(C)C)c2)cc1S(=O)(=O)Nc1cccc(NC(=O)Nc2ccc(NC(=NC(=O)OC(C)(C)C)NC(=O)OC(C)(C)C)cc2)c1 [Example 58] | <5
COc1ccc(-c2cccc(C(=O)N(C)C)c2)cc1S(=O)(=O)Nc1cccc(NC(=O)Nc2ccc(NC(=N)NC(=O)OC(C)(C)C)cc2)c1 [Example 59] | <5
COc1ccc(-c2cccc(C(=O)N(C)C)c2)cc1S(=O)(=O)Nc1cccc(NC(=O)Nc2ccc(NC(=N)N)cc2)c1 [Example 60] | <5
COc1ccc(-c2cccc(C(=O)N(C)C)c2)cc1S(=O)(=O)Nc1cccc(NC(=O)Nc2ccc([N+](=O)[O-])cc2)c1 [Example 61] | <5
COc1ccc(-c2cccc(C(=O)N(C)C)c2)cc1S(=O)(=O)Nc1cccc(NC(=O)Nc2cccc(NC(=O)OC(C)(C)C)c2)c1 [Example 62] | 8
COc1ccc(-c2cccc(C(=O)N(C)C)c2)cc1S(=O)(=O)Nc1cccc(NC(=O)Nc2cccc(N)c2)c1 [Example 63] | 9
COc1ccc(-c2cccc(C(=O)N(C)C)c2)cc1S(=O)(=O)Nc1cccc(NC(=O)Nc2cccc(NC(=NC(=O)OC(C)(C)C)NC(=O)OC(C)(C)C)c2)c1 [Example 64] | <5

Same assay, conditions: 10 μM test compound; relative to orexin-A as full agonist (100%)

Compound | Response (%) OX1R [%]
COc1ccc(-c2cccc(C(=O)N(C)C)c2)cc1S(=O)(=O)Nc1cccc(NC(=O)Nc2ccc(N)cc2)c1 [Example 55] | <5
COc1ccc(-c2cccc(C(=O)N(C)C)c2)cc1S(=O)(=O)Nc1cccc(NC(=O)Nc2ccc(C)cc2)c1 [Example 56] | 19
COc1ccc(-c2cccc(C(=O)N(C)C)c2)cc1S(=O)(=O)Nc1cccc(NC(=O)Nc2cccc([N+](=O)[O-])c2)c1 [Example 57] | <5
COc1ccc(-c2cccc(C(=O)N(C)C)c2)cc1S(=O)(=O)Nc1cccc(NC(=O)Nc2ccc(NC(=NC(=O)OC(C)(C)C)NC(=O)OC(C)(C)C)cc2)c1 [Example 58] | <5
COc1ccc(-c2cccc(C(=O)N(C)C)c2)cc1S(=O)(=O)Nc1cccc(NC(=O)Nc2ccc(NC(=N)NC(=O)OC(C)(C)C)cc2)c1 [Example 59] | <5
COc1ccc(-c2cccc(C(=O)N(C)C)c2)cc1S(=O)(=O)Nc1cccc(NC(=O)Nc2ccc(NC(=N)N)cc2)c1 [Example 60] | <5
COc1ccc(-c2cccc(C(=O)N(C)C)c2)cc1S(=O)(=O)Nc1cccc(NC(=O)Nc2ccc([N+](=O)[O-])cc2)c1 [Example 61] | 7
COc1ccc(-c2cccc(C(=O)N(C)C)c2)cc1S(=O)(=O)Nc1cccc(NC(=O)Nc2cccc(NC(=O)OC(C)(C)C)c2)c1 [Example 62] | 13
COc1ccc(-c2cccc(C(=O)N(C)C)c2)cc1S(=O)(=O)Nc1cccc(NC(=O)Nc2cccc(N)c2)c1 [Example 63] | 7
COc1ccc(-c2cccc(C(=O)N(C)C)c2)cc1S(=O)(=O)Nc1cccc(NC(=O)Nc2cccc(NC(=NC(=O)OC(C)(C)C)NC(=O)OC(C)(C)C)c2)c1 [Example 64] | <5
